Tests used:
[1] = system: CAL51 cells; experiment: Cell proliferation (Cell Titer Glow), CAL51; assay type: cell-based; conditions: Homo sapiens, CAL-51; IG compounds, cell killing, 72 h
Protocol: Exemplary isoindolinone-glutarimide (IG) compounds of Table 1a, 1b and 1c were prepared and characterized according to the Examples herein. Certain exemplary IG compounds of(Table 1a were tested for their effects in inhibiting cellular proliferation, including CAL1 WSU-DLCL2, NCI-N87 and SKBR3. CAL51 is a human breast adenocarcinoma cell line with triple-negative status for expression of estrogen, progesterone and HER2 receptors. WSU-DLCL2 is a human B-Cell non-Hodgkin lymphoma cell line that expresses high levels of CD22. NCI-N87 is a human epithelial cell line established from a gastric carcinoma; SKBR3 is a human epithelial cell line established from a breast adenocarcinoma; both NCI-N87 and SKBR3 cell lines express high levels of HER2 receptor. […]
One day prior to treatment with compounds or IGAC, cells were plated in white 96-well plates (SKBR: 3000 cells/well; CAL-51: 4000 cells/well). Compounds or ADCs were added in a serial-dilution manner reaching the indicated concentrations. Plates were incubated at 37 degrees for 96h (ADCs) or 72h (compounds) whereafter a 1:10 dilution of Cell Titer Glow was used to measure relative cell numbers after 10 min of incubation at room temperature.

[2] = system: CAL51 cells; experiment: Degradation assay evaluated by immunofluorescence staining, CAL51; assay type: cell-based, human; conditions: for Dmax (%) CAL51: CAL51, 6 h; for Dmax / DC50: Homo sapiens, CAL-51, CAL51, 6 h
Protocol: One day prior to treatment with compounds, black 96 well plates were coated with fibronectin (0.2 μg/ml in PBS) for 45 min at room temperature and subsequently washed with PBS. CAL-51 or SKBR3 cells were seeded at 30K cells/well (1001) and incubated overnight at 37° C. whereafter compounds were added reaching indicated concentrations. 6 h after treatment the medium was removed, cells were washed with PBS and fixed with 10% formalin for 20 mins at room temperature. Following two PBS washes (150 μl), cells were permeabilized in 0.1% Triton X-100 in PBS for 8 mins at room temperature and subsequently washed again twice with PBS. Cells were blocked thereafter with 1% BSA in PBS for 45 mins. Primary antibody was diluted in blocking buffer and incubated with the cells overnight at 4° C. After three washes with PBS, cells were incubated with secondary antibody for 1 h at RT, washed and subsequently images were taken on an Operetta High-Content Imager.
For the determination of the DC50, a custom algorithm implemented in the PerkinElmer image analysis software Harmony-Acapella® was used.

Row | DC50 [2] | SMILES | IC50 [1] | Dmax (%) CAL51 [2] | Dmax [2]
1 |  | O=C1CCC(N2Cc3c(Nc4ccnc(Nc5ccc6c(c5)CCC6)n4)ccc(O)c3C2=O)C(=O)N1 (stereo not drawn) [IG-44, 3-(4-((2-((2,3-dihydro-1H-inden-5-yl)amino)pyrimidin-4-yl)amino)-7-hydroxy-1-oxoisoindolin-2-yl)piperidine-2,6-dione] | > 10 µM |  | 
2 |  | O=C1CCC(N2Cc3c(Nc4ccnc(Cc5ccc6c(c5)CCC6)n4)cccc3C2=O)C(=O)N1 (stereo not drawn) [IG-19, 3-(4-((2-((2,3-dihydro-1H-inden-5-yl)methyl)pyrimidin-4-yl)amino)-1-oxoisoindolin-2-yl)piperidine-2,6-dione] | > 10 µM | Not active | 
3 |  | CNc1c(CNC(=O)Nc2ccc(C)c(Cl)c2)ccc2c1CN(C1CCC(=O)NC1=O)C2=O (stereo not drawn) [IG-31, 1-(3-chloro-4-methylphenyl)-3-((2-(2,6-dioxopiperidin-3-yl)-4-(methylamino)-1-oxoisoindolin-5-yl)methyl)urea] | > 10 µM |  | 18.6%
4 |  | Cc1ccc(NC(=O)CCc2ccc3c(c2)CN(C2CCC(=O)NC2=O)C3=O)cc1O (stereo not drawn) [IG-10, 3-(2-(2,6-dioxopiperidin-3-yl)-1-oxoisoindolin-5-yl)-N-(3-hydroxy-4-methylphenyl)propanamide] | > 10 µM |  | 25.1 ± 3.27%
5 |  | Cc1ccc(NC(=O)OCc2ccc3c(c2)CN(C2CCC(=O)NC2=O)C3=O)cc1O (stereo not drawn) [IG-13, (2-(2,6-dioxopiperidin-3-yl)-1-oxoisoindolin-5-yl)methyl (3-hydroxy-4-methylphenyl)carbamate] | 3.04 µM |  | 38.8 ± 1.98%
6 | 174 ± 106 nM | Cc1ccc(NC(=O)NCc2ccc3c(c2)C(=O)N(C2CCC(=O)NC2=O)C3)cc1Cl (stereo not drawn) [IG-16, 1-(3-chloro-4-methylphenyl)-3-((2-(2,6-dioxopiperidin-3-yl)-3-oxoisoindolin-5-yl)methyl)urea] | 0.444 µM |  | 91.7 ± 5.22%
7 |  | CNc1cc2c(cc1CNC(=O)Nc1ccc(C)c(Cl)c1)CN(C1CCC(=O)NC1=O)C2=O (stereo not drawn) [IG-45, 1-(3-chloro-4-methylphenyl)-3-((2-(2,6-dioxopiperidin-3-yl)-6-(methylamino)-1-oxoisoindolin-5-yl)methyl)urea] | > 10 µM |  | 
8 |  | CNCCOCCc1ccc(NC(=O)OCc2ccc3c(c2)CN(C2CCC(=O)NC2=O)C3=O)cc1Cl (stereo not drawn) [IG-4] | > 10 µM |  | 17.3 ± 0.107%
9 |  | Cc1ccc(NC(=O)NCc2ccc3nnn(C4CCC(=O)NC4=O)c(=O)c3c2)cc1O (stereo not drawn) [IG-35, 1-((3-(2,6-dioxopiperidin-3-yl)-4-oxo-3,4-dihydrobenzo[d][1,2,3]triazin-6-yl)methyl)-3-(3-hydroxy-4-methylphenyl)urea] | > 10 µM |  | 
10 |  | Cc1ccc(NC(=O)OCc2ccc3c(c2O)CN(C2CCC(=O)NC2=O)C3=O)cc1Cl (stereo not drawn) [IG-33, (2-(2,6-dioxopiperidin-3-yl)-4-hydroxy-1-oxoisoindolin-5-yl)methyl (3-chloro-4-methylphenyl)carbamate] | > 10 µM |  | 
11 | 157 ± 46.5 nM | O=C1CCC(N2C(=O)c3ccc(NS(=O)(=O)c4ccccc4OC(F)(F)F)cc3C2=O)C(=O)N1 (stereo not drawn) [IG-9, N-(2-(2,6-dioxopiperidin-3-yl)-1,3-dioxoisoindolin-5-yl)-2-(trifluoromethoxy)benzenesulfonamide] | 6.49 µM |  | 83.8 ± 5.5%
12 |  | CNCCOCCc1ccc(NC(=O)NCc2ccc3c(c2)CN(C2CCC(=O)NC2=O)C3=O)cc1O (stereo not drawn) [IG-14, 1-((2-(2,6-dioxopiperidin-3-yl)-1-oxoisoindolin-5-yl)methyl)-3-(3-hydroxy-4-(2-(2-(methylamino)ethoxy)ethyl)phenyl)urea] | > 10 µM |  | 22.7 ± 3.34%
13 |  | O=C1CCC(N2C(=O)c3cc(NS(=O)(=O)c4ccccc4OC(F)(F)F)cc(O)c3C2=O)C(=O)N1 (stereo not drawn) [IG-34, N-(2-(2,6-dioxopiperidin-3-yl)-7-hydroxy-1,3-dioxoisoindolin-5-yl)-2-(trifluoromethoxy)benzenesulfonamide] | > 10 µM |  | 
14 |  | CC(C)(C)c1ccc(NC(=O)NCc2ccc3c(c2O)CN(C2CCC(=O)NC2=O)C3=O)cc1 (stereo not drawn) [IG-26, 1-(4-(tert-butyl)phenyl)-3-((2-(2,6-dioxopiperidin-3-yl)-4-hydroxy-1-oxoisoindolin-5-y1)methyl)urea] | > 10 µM |  | 22.1%
15 | 1410 nM | CNCCOCCc1ccc(NC(=O)NCc2ccc3c(c2)CN(C2CCC(=O)NC2=O)C3=O)cc1C(C)C (stereo not drawn) [IG-5] | 6.86 µM |  | 64.6 ± 2.56%
16 |  | Nc1ccc(OS(=O)(=O)c2ccccc2OC(F)(F)F)c2c1C(=O)N(C1CCC(=O)NC1=O)C2=O (stereo not drawn) [IG-30, 7-amino-2-(2,6-dioxopiperidin-3-yl)-1,3-dioxoisoindolin-4-yl 2-(trifluoromethoxy)benzenesulfonate] | > 10 µM |  | 
17 |  | CNCCOCCc1ccc(NC(=O)NCc2ccc3c(c2O)CN(C2CCC(=O)NC2=O)C3=O)cc1Cl (stereo not drawn) [IG-53, 1-(3-chloro-4-(2-(2-(methylamino)ethoxy)ethyl)phenyl)-3-((2-(2,6-dioxopiperidin-3-yl)-4-hydroxy-1-oxoisoindolin-5-yl)methyl)urea] | > 30 µM |  | 
18 |  | CC(C)(C)c1ccc(NC(=O)NCc2ccc3c(c2O)CN(C2CCC(=O)NC2=O)C3=O)cc1Cl (stereo not drawn) [IG-48, 1-(4-(tert-butyl)-3-chlorophenyl)-3-((2-(2,6-dioxopiperidin-3-yl)-4-hydroxy-1-oxoisoindolin-5-yl)methyl)urea] | 0.05 µM |  | 
19 |  | Cc1ccc(NC(=O)NCc2cc(O)c3c(c2)CN(C2CCC(=O)NC2=O)C3=O)cc1Cl (stereo not drawn) [IG-24, 1-(3-chloro-4-methylphenyl)-3-((2-(2,6-dioxopiperidin-3-yl)-7-hydroxy-1-oxoisoindolin-5-yl)methyl)urea] | 0.412 µM |  | 
20 |  | CNCCOCCc1ccc(NC(=O)NCc2ccc3c(c2)C(=O)N(C2CCC(=O)NC2=O)C3)cc1Cl (stereo not drawn) [IG-20, 1-(3-chloro-4-(2-(2-(methylamino)ethoxy)ethyl)phenyl)-3-((2-(2,6-dioxopiperidin-3-yl)-3-oxoisoindolin-5-yl)methyl)urea] | > 10 µM | Not active | 
21 |  | Cc1ccc(NC(=O)NCc2ccc3c(c2O)CN(C2CCC(=O)NC2=O)C3=O)cc1O (stereo not drawn) [IG-27, 1-((2-(2,6-dioxopiperidin-3-yl)-4-hydroxy-1-oxoisoindolin-5-yl)methyl)-3-(3-hydroxy-4-methylphenyl)urea] | > 10 µM |  | 
22 | 28.9 nM | CC(C)(C)c1cccc(NC(=O)NCc2ccc3c(c2O)CN(C2CCC(=O)NC2=O)C3=O)c1 (stereo not drawn) [IG-25, 1-(3-(tert-butyl)phenyl)-3-((2-(2,6-dioxopiperidin-3-yl)-4-hydroxy-1-oxoisoindolin-5-y1)methyl)urea] | 0.0432 µM |  | 89.6%
23 |  | O=C1CCC(N2Cc3c(ccc(CNC(=O)Nc4cccc(S(F)(F)(F)(F)F)c4)c3O)C2=O)C(=O)N1 (stereo not drawn) [IG-43, 1-((2-(2,6-dioxopiperidin-3-yl)-4-hydroxy-1-oxoisoindolin-5-yl)methyl)-3-(3-(pentafluoro-l6-sulfaneyl)phenyl)urea] | 0.472 µM |  | 
24 |  | O=C1CCC(N2Cc3c(ccc(CNC(=O)Nc4ccc(Br)c(Br)c4)c3O)C2=O)C(=O)N1 (stereo not drawn) [IG-47, 1-(3,4-dibromophenyl)-3-((2-(2,6-dioxopiperidin-3-yl)-4-hydroxy-1-oxoisoindolin-5-yl)methyl)urea] | 1.08 µM |  | 
25 |  | O=C1CCC(N2Cc3cc(CNC(=O)Nc4ccc(CCOCCN5CCOCC5)c(O)c4)ccc3C2=O)C(=O)N1 (stereo not drawn) [IG-32, 1-((2-(2,6-dioxopiperidin-3-yl)-1-oxoisoindolin-5-yl)methyl)-3-(3-hydroxy-4-(2-(2-morpholinoethoxy)ethyl)phenyl)urea] | > 10 µM |  | 
26 | 834 ± 125 nM | CNCCOCCc1ccc(NC(=O)NCc2ccc3c(c2)CN(C2CCC(=O)NC2=O)C3=O)cc1SC (stereo not drawn) [IG-6, 1-((2-(2,6-dioxopiperidin-3-yl)-1-oxoisoindolin-5-yl)methyl)-3-(4-(2-(2-(methylamino)ethoxy)ethyl)-3-(methylthio)phenyl)urea] | 7.51 µM |  | 73.3 ± 9.98%
27 |  | Nc1ccc2c(c1OS(=O)(=O)c1ccccc1OC(F)(F)F)C(=O)N(C1CCC(=O)NC1=O)C2=O (stereo not drawn) [IG-29, 5-amino-2-(2,6-dioxopiperidin-3-yl)-1,3-dioxoisoindolin-4-yl 2-(trifluoromethoxy)benzenesulfonate] | > 10 µM |  | 
28 |  | O=C1CCC(N2Cc3cc(NS(=O)(=O)c4ccccc4OC(F)(F)F)ccc3C2=O)C(=O)N1 (stereo not drawn) [IG-11, N-(2-(2,6-dioxopiperidin-3-yl)-1-oxoisoindolin-5-yl)-2-(trifluoromethoxy) benzenesulfonamide] | > 10 µM |  | 42 ± 9.54%
29 |  | O=C1CCC(N2C(=O)c3cc(O)c(NS(=O)(=O)c4ccccc4OC(F)(F)F)cc3C2=O)C(=O)N1 (stereo not drawn) [IG-46, N-(2-(2,6-dioxopiperidin-3-yl)-6-hydroxy-1,3-dioxoisoindolin-5-yl)-2-(trifluoromethoxy)benzenesulfonamide] | > 10 µM |  | 
